PubChem BioAssay AID1918949 (Molecular Pharmacology Branch, DTP, NCI, 2023)

Tested on: K24384-001-R-PDC complex spheroid viability
Test: Anticancer human tumor K24384-001-R-PDC patient-derived pancreatic adenocarcinoma cell line growth inhibition
Details: for IC50: curve of first compound; for viability, T/C: stronger effect = lower value
Procedure, shortened: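 Multicellular complex spheroids of tumor cells with human endothelial cells (HUVEC) and mesenchymal stem cells; the LSD1 inhibitor iadademstat was combined with standard-of-care or investigational agents. Top concentration at or near clinical Cmax, half-log dilutions; final DMSO ≤0.25%.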

[1] = second compound 0.1 µM, first compound 0.0316 µM
[2] = second compound 0.1 µM, first compound 0.1 µM
[3] = second compound 0.1 µM, first compound 0.316 µM
[4] = second compound 0.1 µM, first compound 1 µM
[5] = second compound 0.1 µM, first compound 3.16 µM
[6] = second compound 0.1 µM, first compound 10 µM
[7] = second compound 0.316 µM, first compound 0.0316 µM
[8] = second compound 0.316 µM, first compound 0.1 µM
[9] = second compound 0.316 µM, first compound 0.316 µM
[10] = second compound 0.316 µM, first compound 1 µM
[11] = second compound 0.316 µM, first compound 3.16 µM
[12] = second compound 0.316 µM, first compound 10 µM
[13] = second compound 1 µM, first compound 0.0316 µM
[14] = second compound 1 µM, first compound 0.1 µM
[15] = second compound 1 µM, first compound 0.316 µM
[16] = second compound 1 µM, first compound 1 µM
[17] = second compound 1 µM, first compound 3.16 µM
[18] = second compound 1 µM, first compound 10 µM
[19] = second compound 3.16 µM, first compound 0.0316 µM
[20] = second compound 3.16 µM, first compound 0.1 µM
[21] = second compound 3.16 µM, first compound 0.316 µM
[22] = second compound 3.16 µM, first compound 1 µM
[23] = second compound 3.16 µM, first compound 3.16 µM
[24] = second compound 3.16 µM, first compound 10 µM
[25] = second compound 10 µM, first compound 0.0316 µM
[26] = second compound 10 µM, first compound 0.1 µM
[27] = second compound 10 µM, first compound 0.316 µM
[28] = second compound 10 µM, first compound 1 µM
[29] = second compound 10 µM, first compound 3.16 µM
[30] = second compound 10 µM, first compound 10 µM
[31] = second compound 0.1 µM, first compound 0.00316 µM
[32] = second compound 0.1 µM, first compound 0.01 µM
[33] = second compound 0.316 µM, first compound 0.00316 µM
[34] = second compound 0.316 µM, first compound 0.01 µM
[35] = second compound 1 µM, first compound 0.00316 µM
[36] = second compound 1 µM, first compound 0.01 µM
[37] = second compound 3.16 µM, first compound 0.00316 µM
[38] = second compound 3.16 µM, first compound 0.01 µM
[39] = second compound 10 µM, first compound 0.00316 µM
[40] = second compound 10 µM, first compound 0.01 µM
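Further: spheroids exposed to agents for seven days before luminescence viability reading.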
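Wherever viability, T/C is given: 100% = DMSO vehicle control viability.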

SMILES	IC50 (second compound 0.1 µM) [nM]	IC50 (second compound 0.316 µM) [nM]	IC50 (second compound 1 µM) [nM]	IC50 (second compound 3.16 µM) [nM]	IC50 (second compound 10 µM) [nM]	viability, T/C [1] [%]	viability, T/C [2] [%]	viability, T/C [3] [%]	viability, T/C [4] [%]	viability, T/C [7] [%]	viability, T/C [8] [%]	viability, T/C [9] [%]	viability, T/C [10] [%]	viability, T/C [13] [%]	viability, T/C [14] [%]	viability, T/C [15] [%]	viability, T/C [16] [%]	viability, T/C [19] [%]	viability, T/C [20] [%]	viability, T/C [21] [%]	further results
CC(C)c1c(-c2ccccc2)nc2c(C#N)c[nH]n2c1=O + NC1CC1c1ccc(-c2cccc(O)c2)cc1	> 10000	> 10000	> 10000	> 10000	> 10000	84	114	71	86.7	119	84.1	65.9	86	82.3	62.7	72.6	65	85.5	79	91.4	viability, T/C [5]: 73.1%; viability, T/C [6]: 76.3%; viability, T/C [11]: 90.8%; viability, T/C [12]: 74.8%; viability, T/C [17]: 70.1%; viability, T/C [18]: 69.8%; viability, T/C [22]: 66.9%; viability, T/C [23]: 67.3%; viability, T/C [24]: 72.2%; viability, T/C [25]: 78.8%; viability, T/C [26]: 86.2%; viability, T/C [27]: 84.8%; viability, T/C [28]: 76.5%; viability, T/C [29]: 70.8%; viability, T/C [30]: 76.8%
CC1COCCN1c1cc(-c2ccnn2C)c2ccnc(-c3ccn[nH]3)c2n1 (stereo not given) + NC1CC1c1ccc(-c2cccc(O)c2)cc1	4.71	326	16.3	10.4	343	40.2	44.7	46.9	38	51	45.1	53.5	34	40.9	42.9	43.8	35.8	43.7	39.7	48.1	viability, T/C [31]: 51.2%; viability, T/C [32]: 51.4%; viability, T/C [33]: 56.1%; viability, T/C [34]: 46.6%; viability, T/C [35]: 53%; viability, T/C [36]: 59.9%; viability, T/C [37]: 56.5%; viability, T/C [38]: 52.3%; viability, T/C [22]: 37%; viability, T/C [39]: 64.2%; viability, T/C [40]: 60.1%; viability, T/C [25]: 51.1%; viability, T/C [26]: 59%; viability, T/C [27]: 51.8%; viability, T/C [28]: 31.7%
COc1ccc([C@@H](O)c2cc(-c3ncnc4cc(N5CCOCC5)ccc34)c(F)cc2Cl)nn1 + NC1CC1c1ccc(-c2cccc(O)c2)cc1	1330	2000	1490	1440	1450	97	95.6	87.2	55.9	112	102	91.1	73.2	117	103	95.2	61.3	105	105	79.7	viability, T/C [5]: 29.6%; viability, T/C [6]: 17.8%; viability, T/C [11]: 34.3%; viability, T/C [12]: 15.1%; viability, T/C [17]: 28.1%; viability, T/C [18]: 15.9%; viability, T/C [22]: 62.7%; viability, T/C [23]: 28.6%; viability, T/C [24]: 15.1%; viability, T/C [25]: 124%; viability, T/C [26]: 114%; viability, T/C [27]: 96.6%; viability, T/C [28]: 57%; viability, T/C [29]: 32.2%; viability, T/C [30]: 14.9%
O=C(C=Cn1cnc(-c2cc(C(F)(F)F)cc(C(F)(F)F)c2)n1)NNc1cnccn1 + NC1CC1c1ccc(-c2cccc(O)c2)cc1	27.7	23.7	22.4	21.2	27.8	46.5	28.7	24.7	20.6	42.7	30.2	21.6	20.3	40.6	27.3	22.7	19	42	26	21.7	viability, T/C [31]: 68.8%; viability, T/C [32]: 72.3%; viability, T/C [33]: 68.2%; viability, T/C [34]: 72.8%; viability, T/C [35]: 67.1%; viability, T/C [36]: 77%; viability, T/C [37]: 80.9%; viability, T/C [38]: 65.4%; viability, T/C [22]: 19.5%; viability, T/C [39]: 80.6%; viability, T/C [40]: 81.9%; viability, T/C [25]: 46%; viability, T/C [26]: 30.7%; viability, T/C [27]: 26.7%; viability, T/C [28]: 24.5%
